Source: paper PMC5218480 (PLoS ONE, 2017)

Tested on: MV-4-11 cells
Test: Gene expression microarray analysis (Affymetrix PrimeView) and GSEA
Assay type: cell-based, human
Design: RFU PODN (11730768_x_at) / Fold change /veh PODN (11730768_x_at) / RFU LINC00158 (11744669_a_at) / Fold change /veh LINC00158 (11744669_a_at) / RFU DUSP10 (11751237_a_at) / Fold change /veh DUSP10 (11751237_a_at) / RFU ID3 (11757404_x_at) / Fold change /veh ID3 (11757404_x_at) / RFU PLEKHG5 (11737974_s_at) / Fold change /veh PLEKHG5 (11737974_s_at) / RFU LRRC4B (11730491_at) / Fold change /veh LRRC4B (11730491_at) / RFU GIMAP4 (11747438_a_at) / Fold change /veh GIMAP4 (11747438_a_at) / RFU KRT8 (11758183_x_at) / Fold change /veh KRT8 (11758183_x_at) / RFU CNN1 (11734310_a_at) / Fold change /veh CNN1 (11734310_a_at) / RFU VPS37D (11726825_at) / Fold change /veh VPS37D (11726825_at) / RFU C10orf10 (11716522_x_at) / Fold change /veh C10orf10 (11716522_x_at) / RFU KIR2DL2 /// KIR2DL4 /// KIR2DL5A /// KIR2DL5B /// KIR2DS1 /// KIR2DS2 /// KIR2DS3 /// KIR2DS4 /// KIR3DL3 /// KIR3DL3 /// KIR3DS1 (11738374_at) / Fold change /veh KIR2DL2 /// KIR2DL4 /// KIR2DL5A /// KIR2DL5B /// KIR2DS1 /// KIR2DS2 /// KIR2DS3 /// KIR2DS4 /// KIR3DL3 /// KIR3DL3 /// KIR3DS1 (11738374_at) / RFU C1QL1 (11718748_at) / Fold change /veh C1QL1 (11718748_at) / RFU TMPRSS4 (11747572_a_at) / Fold change /veh TMPRSS4 (11747572_a_at) / RFU HAMP (11756126_x_at) / Fold change /veh HAMP (11756126_x_at) / RFU RNFT2 (11725882_a_at) / Fold change /veh RNFT2 (11725882_a_at) / RFU NR4A2 (11747474_a_at) / Fold change /veh NR4A2 (11747474_a_at) / RFU ABCC12 (11746883_a_at) / Fold change /veh ABCC12 (11746883_a_at) / RFU TMEM136 (11760407_x_at) / Fold change /veh TMEM136 (11760407_x_at) / RFU CLDN22 /// WWC2 (11732394_at) / Fold change /veh CLDN22 /// WWC2 (11732394_at) / RFU HLA-DPB1 (11760878_x_at) / Fold change /veh HLA-DPB1 (11760878_x_at) / RFU SPINT1 (11716480_a_at) / Fold change /veh SPINT1 (11716480_a_at) / RFU GAP43 (11754022_s_at) / Fold change /veh GAP43 (11754022_s_at) / RFU A4GNT (11735810_at) / Fold change /veh A4GNT (11735810_at) / RFU PRB3 (11715151_x_at) / Fold change /veh PRB3 (11715151_x_at) / RFU TUBB4B (11761932_at) / Fold change /veh TUBB4B (11761932_at) / RFU CAPN14 (11732068_a_at) / Fold change /veh CAPN14 (11732068_a_at) / RFU TMCC2 (11721928_a_at) / Fold change /veh TMCC2 (11721928_a_at) / RFU IRGQ (11745062_a_at) / Fold change /veh IRGQ (11745062_a_at) / RFU FAM174B (11720279_a_at) / Fold change /veh FAM174B (11720279_a_at) / RFU TMPRSS4 (11748680_a_at) / Fold change /veh TMPRSS4 (11748680_a_at) / RFU FAM212B (11763350_a_at) / Fold change /veh FAM212B (11763350_a_at) / RFU PLEKHG5 (11743358_a_at) / Fold change /veh PLEKHG5 (11743358_a_at) / RFU ZSCAN30 (11745921_a_at) / Fold change /veh ZSCAN30 (11745921_a_at) / RFU CMKLR1 (11741424_a_at) / Fold change /veh CMKLR1 (11741424_a_at) / RFU LOC101060620 /// MAPK8IP1 (11723275_at) / Fold change /veh LOC101060620 /// MAPK8IP1 (11723275_at) / RFU SPTSSB (11747773_x_at) / Fold change /veh SPTSSB (11747773_x_at) / RFU PRSS12 (11739890_at) / Fold change /veh PRSS12 (11739890_at) / RFU BIN1 (11741810_x_at) / Fold change /veh BIN1 (11741810_x_at) / RFU WNT11 (11732464_a_at) / Fold change /veh WNT11 (11732464_a_at) / RFU C10orf10 (11716521_a_at) / Fold change /veh C10orf10 (11716521_a_at) / RFU C5orf56 (11738089_at) / Fold change /veh C5orf56 (11738089_at) / RFU CYB561 (11721691_x_at) / Fold change /veh CYB561 (11721691_x_at) / RFU ANKRD19P (11752326_a_at) / Fold change /veh ANKRD19P (11752326_a_at) / RFU OR2T12 /// OR2T33 /// OR2T8 (11738714_s_at) / Fold change /veh OR2T12 /// OR2T33 /// OR2T8 (11738714_s_at) / RFU VCAN (11748164_a_at) / Fold change /veh VCAN (11748164_a_at) / RFU JSRP1 (11732532_at) / Fold change /veh JSRP1 (11732532_at) / RFU KRTAP10-11 (11738290_x_at) / Fold change /veh KRTAP10-11 (11738290_x_at) / RFU MYO3A (11730013_a_at) / Fold change /veh MYO3A (11730013_a_at) / RFU EBF3 (11725865_a_at) / Fold change /veh EBF3 (11725865_a_at) / RFU CAMK2N1 (11719241_x_at) / Fold change /veh CAMK2N1 (11719241_x_at) / RFU C5orf56 (11738088_a_at) / Fold change /veh C5orf56 (11738088_a_at) / RFU OLFML3 (11715873_a_at) / Fold change /veh OLFML3 (11715873_a_at) / RFU LOC100653217 /// NTM (11731650_a_at) / Fold change /veh LOC100653217 /// NTM (11731650_a_at) / RFU MAPK11 (11762145_a_at) / Fold change /veh MAPK11 (11762145_a_at) / RFU FIZ1 (11724087_x_at) / Fold change /veh FIZ1 (11724087_x_at) / RFU OASL (11726364_x_at) / Fold change /veh OASL (11726364_x_at) / RFU SOX15 (11748057_x_at) / Fold change /veh SOX15 (11748057_x_at) / RFU CD79A (11719716_a_at) / Fold change /veh CD79A (11719716_a_at) / RFU HIST1H1D (11736915_at) / Fold change /veh HIST1H1D (11736915_at) / RFU CASKIN2 (11723855_a_at) / Fold change /veh CASKIN2 (11723855_a_at) / RFU LOC730098 (11760151_x_at) / Fold change /veh LOC730098 (11760151_x_at) / RFU OR4N2 (11742367_at) / Fold change /veh OR4N2 (11742367_at) / RFU PRRT2 (11749266_a_at) / Fold change /veh PRRT2 (11749266_a_at) / RFU SNX32 (11753110_a_at) / Fold change /veh SNX32 (11753110_a_at) / RFU CDHR5 (11726645_a_at) / Fold change /veh CDHR5 (11726645_a_at) / RFU RCAN1 (11760418_a_at) / Fold change /veh RCAN1 (11760418_a_at) / RFU FAM167A (11723789_a_at) / Fold change /veh FAM167A (11723789_a_at) / RFU FAM26E (11764081_at) / Fold change /veh FAM26E (11764081_at) / RFU ISYNA1 (11749810_s_at) / Fold change /veh ISYNA1 (11749810_s_at) / RFU ACY1 (11761880_at) / Fold change /veh ACY1 (11761880_at) / RFU 11764098_at / Fold change /veh 11764098_at / RFU SAMD14 (11745864_x_at) / Fold change /veh SAMD14 (11745864_x_at) / RFU NPB (11741838_a_at) / Fold change /veh NPB (11741838_a_at) / RFU TMPRSS6 (11731388_a_at) / Fold change /veh TMPRSS6 (11731388_a_at) / RFU KRTAP10-2 (11738614_at) / Fold change /veh KRTAP10-2 (11738614_at) / RFU ARHGAP8 /// PRR5-ARHGAP8 (11727945_x_at) / Fold change /veh ARHGAP8 /// PRR5-ARHGAP8 (11727945_x_at) / RFU KRTAP5-7 /// NADSYN1 (11734609_at) / Fold change /veh KRTAP5-7 /// NADSYN1 (11734609_at) / RFU RASL12 (11751679_a_at) / Fold change /veh RASL12 (11751679_a_at) / RFU CDKN2B (11736163_a_at) / Fold change /veh CDKN2B (11736163_a_at) / RFU PRF1 (11729649_at) / Fold change /veh PRF1 (11729649_at) / RFU, ZNF638 /// ZNF638-IT1 / Fold change vs veh, ZNF638 /// ZNF638-IT1 / RFU, PANK3 / Fold change vs veh, PANK3 / RFU, SH3YL1 / Fold change vs veh, SH3YL1 / RFU, ZEB2 / Fold change vs veh, ZEB2 / RFU, NRIP1 / Fold change vs veh, NRIP1 / RFU, PTTG1IP / Fold change vs veh, PTTG1IP / RFU, CAPN2 / Fold change vs veh, CAPN2 / RFU, MED14 / Fold change vs veh, MED14 / RFU, SNORA58 / Fold change vs veh, SNORA58 / RFU, C1orf63 / Fold change vs veh, C1orf63 / RFU, LRRFIP1 / Fold change vs veh, LRRFIP1 / RFU, NDUFAF7 / Fold change vs veh, NDUFAF7 / RFU, SLC12A2 / Fold change vs veh, SLC12A2 / RFU, IBTK / Fold change vs veh, IBTK / RFU, ESF1 / Fold change vs veh, ESF1 / Fold change vs veh, TMEM50B / RFU, TAOK1 / Fold change vs veh, TAOK1 / RFU, ACBD3 / Fold change vs veh, ACBD3 / RFU, TMA16 / Fold change vs veh, TMA16 / RFU, RWDD3 / Fold change vs veh, RWDD3 / RFU, BCAT1 / Fold change vs veh, BCAT1 / RFU, EDEM3 / Fold change vs veh, EDEM3 / RFU, TMEM33 / Fold change vs veh, TMEM33 / RFU, WDR75 / Fold change vs veh, WDR75 / RFU, AHCTF1 / Fold change vs veh, AHCTF1 / RFU, TFRC / Fold change vs veh, TFRC / RFU, ZDHHC17 / Fold change vs veh, ZDHHC17 / RFU, NOM1 / Fold change vs veh, NOM1 / RFU, ARL8B / Fold change vs veh, ARL8B / RFU, ZBTB11 / Fold change vs veh, ZBTB11 / RFU, TAMM41 / Fold change vs veh, TAMM41 / RFU, KIAA1704 /// LOC100996395 / Fold change vs veh, KIAA1704 /// LOC100996395 / RFU, ING1 / Fold change vs veh, ING1 / RFU, TRMT61B / Fold change vs veh, TRMT61B / RFU, FUBP3 / Fold change vs veh, FUBP3 / RFU, TP53 / Fold change vs veh, TP53 / RFU, TNKS2 / Fold change vs veh, TNKS2 / RFU, ZFP14 / Fold change vs veh, ZFP14 / RFU, ACTR2 / Fold change vs veh, ACTR2 / RFU, PPP3R1 / Fold change vs veh, PPP3R1 / RFU, PIK3R1 / Fold change vs veh, PIK3R1 / RFU, HNRNPA1 / Fold change vs veh, HNRNPA1 / RFU, RNF170 / Fold change vs veh, RNF170 / RFU, ZNF28 / Fold change vs veh, ZNF28 / RFU, RNGTT / Fold change vs veh, RNGTT / RFU, OGT / Fold change vs veh, OGT / RFU, BRD1 / Fold change vs veh, BRD1 / RFU, MARS / Fold change vs veh, MARS / RFU, ZNF655 / Fold change vs veh, ZNF655 / RFU, FAHD1 / Fold change vs veh, FAHD1 / RFU, BDP1 / Fold change vs veh, BDP1 / RFU, LRRCC1 / Fold change vs veh, LRRCC1 / RFU, ARID1A / Fold change vs veh, ARID1A / RFU, ZNF146 / Fold change vs veh, ZNF146 / RFU, ZNF330 / Fold change vs veh, ZNF330 / RFU, GPN3 / Fold change vs veh, GPN3 / RFU, C9orf123 / Fold change vs veh, C9orf123 / RFU, N4BP2L2 / Fold change vs veh, N4BP2L2 / RFU, ARFIP1 / Fold change vs veh, ARFIP1 / RFU, FAM179B / Fold change vs veh, FAM179B / RFU, BCL10 / Fold change vs veh, BCL10 / RFU, UHRF1BP1L / Fold change vs veh, UHRF1BP1L / RFU, BET1 / Fold change vs veh, BET1 / RFU, CNOT2 / Fold change vs veh, CNOT2 / RFU, ZNF268 / Fold change vs veh, ZNF268 / Fold change vs veh, ZNF507 / RFU, DGCR2 / Fold change vs veh, DGCR2 / RFU, WDSUB1 / Fold change vs veh, WDSUB1 / Fold change vs veh, HSP90B1 /// MIR3652 / RFU, ADSS / Fold change vs veh, ADSS / RFU, GK / Fold change vs veh, GK / RFU, ZNF148 / Fold change vs veh, ZNF148 / RFU, TAF9 / Fold change vs veh, TAF9 / RFU, SLC1A5 / Fold change vs veh, SLC1A5 / RFU, SLMO2 / Fold change vs veh, SLMO2 / RFU, ABCC4 / Fold change vs veh, ABCC4 / RFU, LOC101060439 /// RAP1B / Fold change vs veh, LOC101060439 /// RAP1B / RFU, RFX7 / Fold change vs veh, RFX7 / RFU, GTPBP10 / Fold change vs veh, GTPBP10 / RFU, CNEP1R1 / Fold change vs veh, CNEP1R1 / RFU, BIVM-ERCC5 /// ERCC5 / Fold change vs veh, BIVM-ERCC5 /// ERCC5 / RFU, ILF3 / Fold change vs veh, ILF3 / RFU 11762660_at / Fold change /veh 11762660_at / RFU VCAN (11757783_s_at) / Fold change /veh VCAN (11757783_s_at) / RFU DDX43 (11728927_at) / Fold change /veh DDX43 (11728927_at) / RFU KRT8 (11758188_x_at) / Fold change /veh KRT8 (11758188_x_at) / RFU NKD1 (11759106_at) / Fold change /veh NKD1 (11759106_at) / RFU SRD5A1 (11742802_a_at) / Fold change /veh SRD5A1 (11742802_a_at) / RFU TPSAB1 /// TPSB2 (11721975_s_at) / Fold change /veh TPSAB1 /// TPSB2 (11721975_s_at) / RFU GSTM3 (11746129_a_at) / Fold change /veh GSTM3 (11746129_a_at) / RFU IL23R (11737362_x_at) / Fold change /veh IL23R (11737362_x_at) / RFU TMEM51 (11727254_a_at) / Fold change /veh TMEM51 (11727254_a_at) / RFU PIWIL2 (11732686_x_at) / Fold change /veh PIWIL2 (11732686_x_at) / RFU ORM1 (11744905_x_at) / Fold change /veh ORM1 (11744905_x_at) / RFU CCDC152 (11743942_at) / Fold change /veh CCDC152 (11743942_at) / RFU ECM1 (11717891_a_at) / Fold change /veh ECM1 (11717891_a_at) / RFU IL23R (11748794_a_at) / Fold change /veh IL23R (11748794_a_at) / RFU TNFAIP8L3 (11732012_x_at) / Fold change /veh TNFAIP8L3 (11732012_x_at) / RFU MBOAT4 (11741988_at) / Fold change /veh MBOAT4 (11741988_at) / RFU 11764193_at / Fold change /veh 11764193_at / RFU TMEM53 (11763286_at) / Fold change /veh TMEM53 (11763286_at) / RFU MAGEB2 (11727129_at) / Fold change /veh MAGEB2 (11727129_at) / RFU TMEM200A (11744735_a_at) / Fold change /veh TMEM200A (11744735_a_at) / RFU CCDC152 (11751479_a_at) / Fold change /veh CCDC152 (11751479_a_at) / RFU FAM211A (11726209_a_at) / Fold change /veh FAM211A (11726209_a_at) / RFU RGS16 (11746705_a_at) / Fold change /veh RGS16 (11746705_a_at) / RFU VCAN (11755009_s_at) / Fold change /veh VCAN (11755009_s_at) / RFU RHOB (11743442_s_at) / Fold change /veh RHOB (11743442_s_at) / RFU RGS16 (11720943_a_at) / Fold change /veh RGS16 (11720943_a_at) / RFU RGS16 (11720944_at) / Fold change /veh RGS16 (11720944_at) / RFU, VPS4B / Fold change vs veh, VPS4B / RFU, CREB1 / Fold change vs veh, CREB1 / RFU, DNAJC13 / Fold change vs veh, DNAJC13 / RFU, GNAQ / Fold change vs veh, GNAQ / RFU, CDK5R1 / Fold change vs veh, CDK5R1 / RFU, ZRANB3 / Fold change vs veh, ZRANB3 / RFU, CUL4A / Fold change vs veh, CUL4A / RFU, CCNY / Fold change vs veh, CCNY / RFU, UFL1 / Fold change vs veh, UFL1 / RFU, COG3 / Fold change vs veh, COG3 / RFU, DIAPH2 / Fold change vs veh, DIAPH2 / RFU, SKA2 / Fold change vs veh, SKA2 / RFU, AFF3 / Fold change vs veh, AFF3 / RFU, LMF1 / Fold change vs veh, LMF1 / RFU, IPO11 / Fold change vs veh, IPO11 / RFU, DFFB / Fold change vs veh, DFFB / RFU, FOXP1 / Fold change vs veh, FOXP1 / RFU, CARD8 / Fold change vs veh, CARD8 / RFU, STRN3 / Fold change vs veh, STRN3 / RFU, ADK / Fold change vs veh, ADK / RFU, RASSF2 / Fold change vs veh, RASSF2 / RFU, WIPF1 / Fold change vs veh, WIPF1 / RFU, LARP1B / Fold change vs veh, LARP1B / RFU, RASA1 / Fold change vs veh, RASA1 / RFU, RB1 / Fold change vs veh, RB1 / RFU, PPFIA1 / Fold change vs veh, PPFIA1 / RFU, MAT2A / Fold change vs veh, MAT2A / RFU, CCT5 / Fold change vs veh, CCT5 / RFU, WDR92 / Fold change vs veh, WDR92 / RFU, CUX1 / Fold change vs veh, CUX1 / RFU, TTC7A / Fold change vs veh, TTC7A / RFU, TMEM135 / Fold change vs veh, TMEM135 / RFU, DEPTOR / Fold change vs veh, DEPTOR / RFU, CPM / Fold change vs veh, CPM / RFU, DNAJB6 / Fold change vs veh, DNAJB6 / RFU, CACNA2D3 / Fold change vs veh, CACNA2D3 / RFU, DTX4 / Fold change vs veh, DTX4 / RFU, TFCP2 / Fold change vs veh, TFCP2 / RFU, GMCL1 /// GMCL1P1 / Fold change vs veh, GMCL1 /// GMCL1P1 / RFU, AEBP2 / Fold change vs veh, AEBP2 / RFU, SNHG1 /// SNORD22 /// SNORD25 /// SNORD26 /// SNORD27 /// SNORD28 /// SNORD29 /// SNORD31 / Fold change vs veh, SNHG1 /// SNORD22 /// SNORD25 /// SNORD26 /// SNORD27 /// SNORD28 /// SNORD29 /// SNORD31 / Fold change (Aza/veh), C12orf56 (ProbeSet 11735607_a_at) / Fold change (ACY-1035/veh), C12orf56 (ProbeSet 11735607_a_at) / Fold change (Aza/veh), FGFR1OP (ProbeSet 11751329_s_at) / Fold change (ACY-1035/veh), FGFR1OP (ProbeSet 11751329_s_at) / Fold change (Aza/veh), VPS36 (ProbeSet 11739960_a_at) / Fold change (ACY-1035/veh), VPS36 (ProbeSet 11739960_a_at) / RFU SYPL1 (11715823_x_at) / Fold change /veh SYPL1 (11715823_x_at) / RFU IGFBP7 (11715501_s_at) / Fold change /veh IGFBP7 (11715501_s_at) / RFU REEP3 (11722064_at) / Fold change /veh REEP3 (11722064_at) / RFU IGLL1 (11728026_x_at) / Fold change /veh IGLL1 (11728026_x_at): dose or concentration left out as unconfirmed
Conditions: ProbeSet 11724877_a_at; LIST D

Nc1ccc(-c2cccs2)cc1NC(=O)c1ccc2c(c1)cc(C1CC1)n2CCN1CCOCC1 [ACY-1035]
RFU, AEBP2: 30.16 RFU
